# Test results published in patent US12582648B2 (BIOPROJET Pharma, priority 2020, dated 2026).
# Legend:
# [1] = tested on: monosynaptic spinal cord reflex; test: Monosynaptic response in the isolated spinal cord of rat pups (rat model of RLS); conditions: for inhibition of the monosynaptic reflex: reference agonists applied to isolated rat spinal cord
# Method: RLS is believed to reflect an abnormal sensitivity of spinal stretch reflexes. These reflexes are modulated in an inhibitory fashion by dopamine released in the dorsal horn from a descending dopaminergic projection arising from A11 dopamine cells in the hypothalamus.
# Electrophysiological responses i.e. motor action potentials recorded on the ventral root of isolated spinal cord from rat pups following stimulation of the dorsal root were analyzed.
# [2] = tested on: 160 other receptors, channels or enzymes; test: Activity at 160 other receptors, channels or enzymes
# [3] = target: human dopamine D3 receptor (Homo sapiens, UniProt P35462); test: Mitogenesis assay of D3-receptor activation ([3H]-thymidine incorporation, CHO cells); type: cell-based; conditions: for agonist behaviour (partial / full): human D3 receptor
# Method: Mitogenesis Assay of D3-Receptor Activation
# Chinese hamster ovary (CHO) cells stably expressing the human dopamine D3 receptor were plated overnight in 96-well plates. Cells were then washed with serum-free medium, and incubated 20 h with various concentrations of ligands. Tritiated thymidine was added for a 4 hour-pulse. Then, the cells were detached with trypsin/EDTA, transferred in GF/C multiscreen microplates, rinsed with ice-cold PBS and ethanol and dried. [^3H]-Thymidine incorporation was measured by liquid scintillation in a MicroBeta counter.
# Results are expressed as percentage of the maximal [^3H]-thymidine incorporation yielded with the full agonist quinelorane.
# [4] = target: human D2 receptor (Homo sapiens, UniProt P14416); test: Affinity at the human D2 receptor; type: binding
# [5] = tested on: healthy smokers; test: Weight gain during smoking cessation, double blind clinical trial; type: in vivo, human; conditions: for weight increase: after twelve weeks; for weight increase compared to the weight before treatment: twelve further weeks after the end of treatment
# [6] = target: T1, human D3 receptor (Homo sapiens, UniProt P35462); test: GTPγ35S binding assay at D3 dopamine receptor (CHO cell membranes); type: biochemical; conditions: GTPγ[35S] assay, dopamine as full agonist reference
# T1 construct: expressed in transfected cells
# Method: Thawed membranes from CHO cells stably expressing human D3 receptor were diluted at a final concentration of 5 μg/180 μL/well in a binding buffer containing HEPES 50 mM, MgCl2 3 mM, NaCl 140 mM, GDP 4 μM, pH=7.4 and distributed in 96 well polystyrene microplate. […] After transfer in a Millipore GF/C HTS® microplate, the filtration of the reactional mix followed by a three time 250 μl wash put an end to the reaction. The filter-bound radioactivity was measured in a liquid scintillation counter Microbeta with 70 μl of scintillation fluid.
# [7] = target: T2, human dopamine D2 short isoform (Homo sapiens, UniProt P14416); test: Calcium fluxes assay of D2-receptor activation/inhibition (HEK293 cells); type: cell-based; conditions: calcium flux; for agonist behaviour at D2 receptor: BP1.4979 at concentrations up to 1,000 nM; for EC50: HEK293 cells, human D2 short isoform
# T2 construct: expressed in transfected cells; host or cells: HEK293 cells
# Method: Calcium Fluxes Assay of D2-Receptor Activation/Inhibition
# HEK293 cells expressing the human dopamine D2 short isoform were used to evaluate the potential agonist property of test compounds. Cells were loaded with Fluo-4-AM solution supplemented with sulfinpyrazone then plated in a 96-well plate and introduced in a FLEX station for fluorescence measurement following calcium transients.
# Responses were calculated as the maximum minus the minimum fluorescence counts (Fmax−Fmin).
# [8] = tested on: RLS patients; test: Double-blind placebo-controlled clinical trial in restless legs syndrome; type: in vivo, human; conditions: 15 mg twice a day for two weeks
# Method: Clinical Studies: Efficacy of BP1.4979 in Restless Legs Syndrome (Randomized, Double Blind Parallel Groups Sequential, Placebo Controlled, Clinical Trial)
# The double-blind trial was conducted on 29 patients.
# T2 sequence (P14416 1-414 isoform P14416-2): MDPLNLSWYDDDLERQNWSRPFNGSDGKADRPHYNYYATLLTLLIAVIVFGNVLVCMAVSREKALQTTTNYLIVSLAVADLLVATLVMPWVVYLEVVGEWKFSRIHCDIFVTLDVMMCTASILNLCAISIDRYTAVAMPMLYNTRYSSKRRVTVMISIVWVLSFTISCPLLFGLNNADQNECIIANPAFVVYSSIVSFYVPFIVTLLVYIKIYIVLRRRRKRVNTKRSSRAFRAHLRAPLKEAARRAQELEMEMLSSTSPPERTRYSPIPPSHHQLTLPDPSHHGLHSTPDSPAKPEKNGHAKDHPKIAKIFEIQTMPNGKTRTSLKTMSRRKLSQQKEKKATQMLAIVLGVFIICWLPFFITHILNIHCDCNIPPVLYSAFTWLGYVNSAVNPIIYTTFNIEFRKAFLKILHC
# human dopamine D3 receptor, sequence (P35462 whole entry): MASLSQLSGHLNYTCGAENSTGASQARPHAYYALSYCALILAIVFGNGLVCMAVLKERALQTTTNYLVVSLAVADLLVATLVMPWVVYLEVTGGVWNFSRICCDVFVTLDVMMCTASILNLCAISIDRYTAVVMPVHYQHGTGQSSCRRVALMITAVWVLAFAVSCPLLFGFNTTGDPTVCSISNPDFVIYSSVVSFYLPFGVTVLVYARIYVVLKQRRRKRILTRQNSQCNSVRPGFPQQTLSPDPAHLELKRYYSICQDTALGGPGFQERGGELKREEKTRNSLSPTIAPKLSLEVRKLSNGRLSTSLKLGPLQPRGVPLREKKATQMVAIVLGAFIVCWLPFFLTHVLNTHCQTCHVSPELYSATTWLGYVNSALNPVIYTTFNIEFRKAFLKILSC
# T1 sequence (P35462 whole entry): as above
# human D2 receptor, sequence (P14416 whole entry): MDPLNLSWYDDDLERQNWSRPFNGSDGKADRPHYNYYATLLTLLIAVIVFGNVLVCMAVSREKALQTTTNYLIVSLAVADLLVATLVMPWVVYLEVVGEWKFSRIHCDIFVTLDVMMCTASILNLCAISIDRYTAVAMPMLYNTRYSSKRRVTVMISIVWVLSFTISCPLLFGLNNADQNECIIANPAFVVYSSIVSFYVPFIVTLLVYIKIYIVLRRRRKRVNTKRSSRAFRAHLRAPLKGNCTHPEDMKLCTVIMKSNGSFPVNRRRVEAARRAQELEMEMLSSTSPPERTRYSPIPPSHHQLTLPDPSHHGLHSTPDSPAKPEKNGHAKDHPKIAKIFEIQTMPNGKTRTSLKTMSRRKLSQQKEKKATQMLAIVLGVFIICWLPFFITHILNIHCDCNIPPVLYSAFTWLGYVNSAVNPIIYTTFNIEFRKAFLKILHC
compound,measurement,setting,value
"CCCN(CCC)C1CCc2ccc(O)cc2C1 (stereo not shown) [7-OHDPAT, reference compound]",inhibition of the monosynaptic reflex,[1],total or nearly total inhibition
"COCCC(=O)N[C@H]1CC[C@H](CCN2CCN(c3cccc(C#N)c3)CC2)CC1 [BP1.4979, N-(4-{2-[4-(3-Cyanophenyl)piperazin-1-yl]ethyl}cyclohexyl)-3-methoxypropanamide]","activity at 160 other receptors, channels or enzymes",[2],inactive
same,Emax,"[3]; CHO, read-out: intrinsic activity",30%
same,EC50,"[3]; mitogenesis, CHO cells expressing human D3 receptor",0.7 nM
same,agonist behaviour (partial / full),[3]; mitogenesis,partial agonist
same,behaviour at the human D2 receptor,[4],pure antagonist
same,weight increase,[5]; 3 mg once a day,0.9 kg
same,weight increase compared to the weight before treatment,[5]; 3 mg once a day,2.0 kg
same,weight increase,[5]; 10 mg once a day,0.5 kg
same,weight increase compared to the weight before treatment,[5]; 10 mg once a day,1.4 kg
same,weight increase,[5]; 15 mg once a day,0.0 kg
same,weight increase compared to the weight before treatment,[5]; 15 mg once a day,0.2 kg
same,inhibition of the synaptic transmission,"[1]; 30 nM, stimulation 40 V, 50 μs of the dorsal root",inhibited fully
same,amplitude of the post-synaptic response on the ventral root,"[1]; another series of experiments, supraliminar stimulation of the dorsal root",dose dependently inhibited
same,effect on post-synaptic response in the presence of the dopamine D3 antagonist BP1.4096,[1]; in the presence of BP1.4096,prevented
same,partial activity,[6],< 5%
same,blockade of the effect of dopamine or agonists,[7]; antagonist mode,block completely
same,agonist behaviour at D2 receptor,[7],failed to activate the receptor
same,nausea and vomiting side-effects,[8],no patient reported any symptom related to nausea nor did had vomiting episodes
"NCCc1ccc(O)c(O)c1 [Dopamine, dopamine, reference compound]",inhibition of the monosynaptic reflex,[1],total or nearly total inhibition
CCCN(CCC)CCc1cccc2c1CC(=O)N2 [Ropinirole],agonist behaviour (partial / full),[3]; mitogenesis,full agonists
same,EC50,[7],20 nM
same,agonist behaviour at D2 receptor,[7],full agonists
CCCN(CCc1cccs1)[C@H]1CCc2c(O)cccc2C1 [Rotigotine],EC50,[7],0.3 nM
same,agonist behaviour at D2 receptor,[7],full agonists
